Assay results as given in paper PMC3033228 (Clinical colorectal cancer, 2010).
Like-named read-outs stand apart in the source and are kept apart here.

Key:
[1] = test system: CRC; conditions: cited from earlier work
[2] = human, in vivo
[3] = population pharmacokinetic analysis; cited from earlier work
[4] = test system: patients; conditions: cited from earlier work
[5] = test system: patients with advanced colorectal cancer; experiment: Phase I toxicity assessment; conditions: with FOLFOX4 with or without bevacizumab, oral, advanced CRC
[6] = clinical; conditions: human, in vivo; for Cmax: Erlotinib Cmax
[7] = 5-Fluorouracil plasma pharmacokinetics; assay type: in vivo, human; conditions: for 5-Fluorouracil Cl: DL 3 (erlotinib 150 mg), individual values (n = 2)

COc1cc2ncnc(Nc3ccc(F)c(Cl)c3)c2cc1OCCCN1CCOCC1 [gefitinib]
Response rates (RRs) of monotherapy trials [1]: negligible

C#Cc1cccc(Nc2ncnc3cc(OCCOC)c(OCCO)cc23)c1 [OSI-420]
OSI-420 Cmax ([2]; 50 mg): 60.8 ± 16.1 (3) ng/mL | OSI-420 Tmax ([2]; 50 mg): 2.00 (1.08–2.00, 3) hour | OSI-420 Cmax ([2]; 100 mg): 67.8 ± 49.1 (8) ng/mL | OSI-420 Tmax ([2]; 100 mg): 3.00 (1.03–25.03, 8) hour | OSI-420 Cmax ([2]; 150 mg): 193.2 ± 92.6 (3) ng/mL | OSI-420 Tmax ([2]; 150 mg): 9.95 (2.07–24.08, 3) hour | OSI-420 exposure as share of erlotinib exposure [3]: approximately 10%

C#Cc1cccc(Nc2ncnc3cc(OCCOC)c(OCCOC)cc23)c1 [erlotinib]
Dose level at which grade 3 diarrhea occurred [4]: 200 mg | Patients experiencing diarrhea ([4]; erlotinib 100 mg/day): 25% | Patients experiencing diarrhea ([4]; erlotinib 150 mg/day): 86% | Response rates (RRs) of monotherapy trials [1]: negligible | Maximum tolerated dose (MTD) of erlotinib [5]: 100 mg daily | Tmax ([6]; 50 mg, Erlotinib Tmax): 1.08 h | Cmax ([6]; 100 mg): 985 ± 576 ng/mL | Cmax ([6]; 150 mg): 1960 ± 1160 ng/mL

O=c1[nH]cc(F)c(=O)[nH]1 [5-Fluorouracil]
5-Fluorouracil Cl ([7]; column Combination): 313.2 L/h | 5-Fluorouracil Cl ([7]; column Single Agent): 217.4 L/h | 5-Fluorouracil systemic clearance, effect of co-administration of erlotinib ([7]; P = .97): not markedly affected
